The source of these data is patent publication US6498163B1, “Pyrido[2,3-D]pyrimidines and 4-aminopyrimidines as inhibitors of cellular proliferation” (Warner-Lambert Company, priority 1997, dated 2002).

Counter-ions that a name gives are not always drawn. Like-named read-outs stand apart in the source and are kept apart here.

One data set addresses cdk4/D (Homo sapiens, UniProt P11802). Put plainly: Cyclin-dependent kinase 4 (cdk4) assay. Particulars: for cdk4/D % inhibition at 40 μM: Table 2. Format: biochemical. Here is the method: As noted above, the compounds of this invention are potent inhibitors of cyclin-dependent kinases, and accordingly, are useful in treating and preventing atherosclerosis, and other cell proliferative disorders like cancer. […] A typical assay, for instance, measures inhibitory activity against the cyclin D dependent kinase 4 enzyme (cdk4/D). […] The cdk 4 assay was carried out as follows.
Cyclin-Dependent Kinase 4 (cdk4) Assay
The total volume was 0.1 mL containing a final concentration of 20 mM TRIS (tris[hydroxymethyl]aminomethane), at pH 7.4, 50 mM NaCl, 1 mM dithiothreitol, 10 mM MgCl2, 25 μM ATP containing 0.25 μCi of [^32P]ATP, 20 ng of cdk4, 1 μg of retinoblastoma, and appropriate dilutions of a compound of the present invention. All components except the ATP were added to the wells, and the plate was placed on a plate mixer for 2 minutes. The reaction was started by adding [^32P]ATP and the plate was incubated at 25° C. for 15 minutes. The reaction was terminated by addition of 0.1 mL of 20% trichloroacetic acid (TCA). The plate was kept at 4° C. for at least 1 hour to allow the substrate to precipitate. The wells were then washed five times with 0.2 mL of 10% TCA and ^32P incorporation was determined with a beta plate counter (Wallac Inc., Gaithersburg, Md.).

In data set [1] the target is T1, PDGF-β receptor tyrosine kinase (Mus musculus, UniProt P05622).
T1 construct: amplify a fragment of DNA that codes for the intracellular tyrosine kinase domain; made in house; host or cells: SF9 insect cells (baculovirus)
T1 sequence (P05622 599-961 limits assumed): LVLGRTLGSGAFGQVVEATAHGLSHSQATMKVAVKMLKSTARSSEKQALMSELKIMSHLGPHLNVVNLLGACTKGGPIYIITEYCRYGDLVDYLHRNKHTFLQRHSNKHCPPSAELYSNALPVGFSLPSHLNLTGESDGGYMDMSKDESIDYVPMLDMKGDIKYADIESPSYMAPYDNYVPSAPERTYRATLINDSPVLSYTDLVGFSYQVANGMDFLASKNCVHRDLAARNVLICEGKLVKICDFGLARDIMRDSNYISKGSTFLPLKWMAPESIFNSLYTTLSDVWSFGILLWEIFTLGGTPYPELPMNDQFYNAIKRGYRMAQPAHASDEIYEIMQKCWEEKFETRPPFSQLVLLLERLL
Put plainly: PDGF receptor tyrosine kinase assay. Format: biochemical. To be noted: Table 4, Formula II compound. Here is the method:
(§1) The compounds of Formulas I and II also have shown good inhibitory activity against certain growth factor receptor tyrosine kinase enzymes, including fibroblast growth factor (FGF) and platelet derived growth factor (PDGF). […] The invention compounds range in IC50 inhibition against FGF tyrosine kinase generally from about 0.004 to about 40 μM. […] The assays used to determine these activities were carried out as follows:
(§2) PDGF and EGF Receptor Tyrosine Kinase Assays
(§3) Full-length cDNAs for the mouse PDGF-β and human FGF-1 (flg) receptor tyrosine kinases were obtained from J. Escobedo and prepared as described in J. Biol. Chem., 1991;262:1482-1487. PCR primers were designed to amplify a fragment of DNA that codes for the intracellular tyrosine kinase domain. The fragment was inserted into a baculovirus vector, cotransfected with AcMNPV DNA, and the recombinant virus isolated. SF9 insect cells were infected with the virus to overexpress the protein, and the cell lysate was used for the assay. […] Filters were washed three times with 15% TCA containing 100 mM sodium pyrophosphate, and the radioactivity retained on the filters counted in a Wallac 1250 Betaplate reader. Nonspecific activity was defined as radioactivity retained on the filters following incubation of samples with buffer alone (no enzyme). […]

Data set [2] concerns the target T2, FGF-1 (flg) receptor tyrosine kinase (Homo sapiens, UniProt P11362).
T2 construct: amplify a fragment of DNA that codes for the intracellular tyrosine kinase domain; made in house; host or cells: SF9 insect cells (baculovirus)
Put plainly: FGF receptor tyrosine kinase assay. Format: biochemical. Particulars: Table 4, Formula II compound. The procedure: as §1, §2, §3

The next data set addresses cdc2/cyclinB (Homo sapiens, UniProt P06493). Put plainly: Cyclin-dependent kinase assay cdc2/cyclinB (cdk1/B). Format: biochemical. Particulars: Table 1.
A short description of data set [3]: Plasma levels in mice after dosing. The format is in vivo, nude mice. Particulars: intraperitoneally at 12 mg/kg, at 30 minutes following dosing. Here is the method: For example, the compound of Example 60 was administered orally at 5 mg/kg to mice, and plasma levels of about 200 nM were measured at 30 minutes following dosing. The compound was also administered intraperitoneally at 12 mg/kg and produced a peak plasma concentration of 10,000 nM at 30 minutes following dosing.

The subject of data set [4] is MCF-7 human mammary tumor xenografts. Put plainly: MCF-7 human mammary tumor xenograft. Format: in vivo, female nude mice. To be noted: 5 to 20 mg/kg, q12 h×2; days 1-14, subcutaneous MCF-7 xenografts.
Where [5] appears, read: Table 2, Formula II compounds, read-out: cdk4/IC50 IC50.

Sequence of cdk4/D (P11802 whole entry, species assumed): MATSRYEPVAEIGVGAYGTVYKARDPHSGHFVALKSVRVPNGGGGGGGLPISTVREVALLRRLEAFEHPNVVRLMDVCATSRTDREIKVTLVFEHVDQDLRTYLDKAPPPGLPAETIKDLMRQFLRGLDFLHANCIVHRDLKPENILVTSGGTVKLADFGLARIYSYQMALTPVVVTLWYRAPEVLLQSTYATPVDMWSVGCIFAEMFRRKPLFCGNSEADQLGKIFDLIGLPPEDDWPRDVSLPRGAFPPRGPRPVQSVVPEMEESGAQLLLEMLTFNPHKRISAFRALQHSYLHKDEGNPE
Sequence of cdk4/D (P24385 whole entry partner, species assumed): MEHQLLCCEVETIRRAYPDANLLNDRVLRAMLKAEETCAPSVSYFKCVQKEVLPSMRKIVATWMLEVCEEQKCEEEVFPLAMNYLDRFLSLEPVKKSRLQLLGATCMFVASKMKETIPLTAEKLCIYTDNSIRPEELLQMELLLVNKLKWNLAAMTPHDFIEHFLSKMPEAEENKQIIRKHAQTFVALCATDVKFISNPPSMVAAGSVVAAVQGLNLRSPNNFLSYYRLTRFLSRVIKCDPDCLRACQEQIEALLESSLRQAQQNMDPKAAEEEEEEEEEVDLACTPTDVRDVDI
Sequence of cdc2/cyclinB (P06493 whole entry, species assumed): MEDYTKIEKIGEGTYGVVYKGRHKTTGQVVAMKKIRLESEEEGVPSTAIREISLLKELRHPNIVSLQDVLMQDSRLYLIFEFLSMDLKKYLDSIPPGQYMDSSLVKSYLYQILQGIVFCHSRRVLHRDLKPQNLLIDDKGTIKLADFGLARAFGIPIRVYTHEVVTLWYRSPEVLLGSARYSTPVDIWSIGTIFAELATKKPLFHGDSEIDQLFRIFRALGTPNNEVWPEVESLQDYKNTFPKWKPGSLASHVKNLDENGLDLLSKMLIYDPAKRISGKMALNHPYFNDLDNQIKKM
Sequence of cdc2/cyclinB (P14635 whole entry partner, species assumed): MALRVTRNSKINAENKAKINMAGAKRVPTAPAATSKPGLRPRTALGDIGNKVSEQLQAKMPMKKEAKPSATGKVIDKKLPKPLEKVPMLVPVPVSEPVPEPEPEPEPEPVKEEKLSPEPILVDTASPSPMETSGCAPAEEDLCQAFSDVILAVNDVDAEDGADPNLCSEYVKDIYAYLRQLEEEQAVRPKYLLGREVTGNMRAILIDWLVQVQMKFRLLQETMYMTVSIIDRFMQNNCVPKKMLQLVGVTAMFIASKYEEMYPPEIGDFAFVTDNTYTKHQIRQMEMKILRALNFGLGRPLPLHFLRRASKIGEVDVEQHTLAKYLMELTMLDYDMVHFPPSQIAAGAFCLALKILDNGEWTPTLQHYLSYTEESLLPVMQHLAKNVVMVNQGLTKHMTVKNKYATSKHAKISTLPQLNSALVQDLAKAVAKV
T2 sequence (P11362 478-767 limits assumed): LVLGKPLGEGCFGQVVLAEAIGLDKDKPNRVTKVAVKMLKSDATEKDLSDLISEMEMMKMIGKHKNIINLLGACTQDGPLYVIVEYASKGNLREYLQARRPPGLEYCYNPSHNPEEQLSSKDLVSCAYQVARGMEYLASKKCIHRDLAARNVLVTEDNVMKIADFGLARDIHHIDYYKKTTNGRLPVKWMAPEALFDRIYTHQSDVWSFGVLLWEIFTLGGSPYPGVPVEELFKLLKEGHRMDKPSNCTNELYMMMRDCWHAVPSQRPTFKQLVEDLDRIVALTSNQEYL

For “3-(4-Ethylamino-2-phenylamino-pyrimidin-5-yl)-but-2-enoic acid ethyl ester [Example 73]”, the “cdk4/D % inhibition at 40 μM” value on cdk4/D was determined as 58%.

Take “3-(4-Ethylamino-2-phenylamino-pyrimidin-5yl)acrylonitrile [Example 72]”: the “cdk4/D % inhibition at 40 μM” value at cdk4/D is listed as 18%.

By melting point is commonly meant the temperature of the solid-liquid transition. Consider `CCn1c(=O)ccc2cnc(NC(C)C)nc21` (as salt: sulfate) [Example 47, 8-Ethyl-2-isopropylamino-8H-pyrido[2,3-d]pyrimidin-7-one], for which the melting point lay in the range of 119 to 120 °C.

As for `CCNc1nc(Nc2ccccc2)ncc1/C=C/C(=O)OCC` [Example 17, Ethyl 3-(4-Ethylamino-2-phenylamino-pyrimidin-5-yl)acrylate], the melting point fell in the range of 125 to 126 °C. Moreover, at cdk4/D (setting [5]), the IC50 is 2000 nM. Also, the IC50 in data set [1] came out at 3700 nM. The compound further displayed an IC50 in data set [2] of 4500 nM.

Take `CCOC(=O)/C=C/c1cnc(Nc2ccccc2)nc1N` [Example 28, Ethyl 3-(4-Amino-2-phenylamino-pyrimidin-5-yl)acrylate]: the melting point was 190 to 192 °C. At cdk4/D (setting [5]), the IC50 came out at 65000 nM.

Regarding `O=c1ccc2cnc(Nc3ccccc3)nc2n1CCCOCc1ccccc1` [Example 38, 8-(3-Benzyloxypropyl)-2-phenylamino-8H-pyrido[2,3-d]pyrimidin-7-one], the IC50 on cdk4/D (Table 1, read-out: cdk4/D IC50) stood at 2700 nM; against cdc2/cyclinB, 29800 nM.

The compound `CCCCn1c(=O)ccc2cnc(Nc3ccccc3)nc21` [Example 40, 8-Butyl-2-phenylamino-8H-pyrido[2,3-d]pyrimidin-7-one] displayed a melting point of 183 to 184 °C.

Take `CC(C)n1c(=O)ccc2cnc(Nc3ccc(N4CCN(C)CC4)cc3)nc21` [Example 60, 8-Isopropyl-2-[4-(4-methylpiperazin-1-yl)-phenylamino]-8H-pyrido[2,3-d]pyrimidin-7-one]: the peak plasma concentration in data set [3] is listed as 10,000 nM. Besides, the tumor growth inhibition entry in data set [4] was “statistically insignificant tumor growth inhibitions”.

In turn, `CC(C)Nc1ncc2ccc(=O)n(C)c2n1` [Example 67, 2-Isopropylamino-8-methyl-8H-pyrido[2,3-d]pyrimidin-7-one] showed a melting point of 148 to 149 °C.

As to `CCC(CC)n1c(=O)ccc2cnc(Nc3ccc(N4CCN(C)CC4)cc3)nc21` [Example 77, 8-(1-Ethylpropyl)-2-[4-(4-methylpiperazin-1-yl)-phenylamino]-8H-pyrido[2,3-d]pyrimidin-7-one], the melting point lay in the range of 155 to 157 °C.

For the compound `CCn1c(=O)c(C)cc2cnc(Nc3ccc(N4CCN(C)CC4)cc3)nc21` [Example 84], the IC50 on cdk4/D (Table 1, read-out: cdk4/D IC50) worked out at 180 nM.

In the case of `O=c1ccc2cnc(Nc3ccccc3)nc2n1-c1ccccc1` [Example 101, 2-Phenylamino-8-phenyl-8H-pyrido[2,3-]pyrimidin-7-one], the melting point was 300 to 302 °C.

Compound `CN1CCN(c2ccc(Nc3ncc4ccc(=O)n(CCOCc5ccccc5)c4n3)cc2)CC1` [Example 140, 8-(2-Benzyloxy-ethyl)-2-[4-(4-methyl-piperazin-1-yl)-phenylamino]-8H-pyrido[2,3-d]pyrimidin-7-one] returned a melting point of 183 to 185 °C.

Compound `CN(C)CCCN1CCN(c2ccc(Nc3ncc4ccc(=O)n(C5CCCCC5)c4n3)cc2)CC1` [Example 144, 8-Cyclohexyl-2-{4-[4-(3-dimethylamino-propyl)-piperazin-1-yl]-phenylamino}-8H-pyrido[2,3-d]pyrimidin-7-one] gave a melting point of 169 to 170 °C.

Take `CN(C)c1ccc(Nc2ncc3ccc(=O)n(C4CCCCC4)c3n2)cc1` [Example 147, 8-Cyclohexyl-2-(4-dimethylamino-phenylamino)-8H-pyrido[2,3-d]pyrimidin-7-one]: the IC50 was 480 nM at cdk4/D (Table 1, read-out: cdk4/D IC50) and 89 nM against cdc2/cyclinB.

`O=c1ccc2cnc(Nc3ccc(N4CCCCC4)cc3)nc2n1C1CCCCCC1` [Example 163, 8-Cycloheptyl-2-(4-piperidin-1-yl-phenylamino)-8H-pyrido[2,3-d]pyrimidin-7-one] came in with a melting point of 201 to 202 °C.

`CCOC(=O)C1CCN(c2ccc(Nc3ncc4ccc(=O)n(C5CCCCC5)c4n3)cc2)CC1` [Example 164, 1-[4-(8-Cyclohexyl-7-oxo-7,8-dihydro-pyrido[2,3-d]pyrimidin-2-ylamino)-phenyl]-piperidine-4-carboxylic acid ethyl ester] yielded a melting point of 174 to 175 °C.

With `O=c1ccc2cnc(NCCN3CCCCC3)nc2n1C1CCCCC1` [Example 165, 8-Cyclohexyl-2-(2-piperidin-1-yl-ethylamino)-8H-pyrido[2,3-d]pyrimidin-7-one], the melting point is 156 to 157 °C.

In turn, `O=c1ccc2cnc(NCCCN3CCCCC3)nc2n1C1CCCCC1` [Example 166, 8-Cyclohexyl-2-(3-piperidin-1-yl-propylamino)-8H-pyrido[2,3-d]pyrimidin-7-one] came in with a melting point of 111 to 112 °C.

In turn, `O=c1ccc2cnc(Nc3ccc(N4CCCCC4)cc3)nc2n1C1CC2CCC1C2` (stereo not drawn) [Example 181, 8-Bicyclo[2.2.1]hept-2-yl-2-(4-piperidin-1-yl-phenylamino)-8H-pyrido[2,3-d]pyrimidin-7-one] yielded a melting point of 243 to 244 °C.

As for `O=c1ccc2cnc(Nc3ccc(N4CCCC(CO)C4)cc3)nc2n1C1CCCCC1` (stereo not drawn) [Example 185, 8-Cyclohexyl-2-[4-(3-hydroxymethyl-piperidin-1-yl)-phenylamino]-8H-pyrido[2,3-d]pyrimidin-7-one], the melting point is 194 to 195 °C.

`O=c1ccc2cnc(Nc3ccc(SC(F)(F)F)cc3)nc2n1C1CC2CCC1C2` (stereo not drawn) [Example 221, 8-Bicyclo[2.2.1]hept-2-yl-2-(4-trifluoromethylsulfanyl-phenylamino)-8H-pyrido[2,3-d]pyrimidin-7-one] displayed a melting point of 205 to 206 °C.

Compound `O=c1ccc2cnc(NCc3ccccc3)nc2n1C1CCCCC1` [Example 222, 2-Benzylamino-8-cyclohexyl-8H-pyrido[2,3-d]pyrimidin-7-one] returned a melting point of 183 to 184 °C.

The compound `O=c1ccc2cnc(Nc3ccc(N4CCCCC4)cc3)nc2n1C1CC2CCC1C2` (stereo not drawn) [Example 229, 8-Bicyclo[2.2.1]hept-2-yl-2-(4-piperidin-1-yl-phenylamino)-8H-pyrido[2,3-d]pyrimidin-7-one] registered a melting point of 209 °C.

For the compound `COc1ccc(CNc2ncc3ccc(=O)n(C(C)C)c3n2)cc1OC` [Example 256, 2-(3,4-Dimethoxy-benzylamino)-8-isopropyl-8H-pyrido[2,3-d]pyrimidin-7-one], the melting point was determined as 128 °C.

Compound `CCn1c(=O)c(C)cc2cnc(Nc3ccc(N4CCC(CCCN5CCOCC5)CC4)cc3)nc21` [Example 264, 8-Ethyl-6-methyl-2-{4-[4-(3-morpholin-4-yl-propyl)-piperidin-1-yl]-phenylamino}-8H-pyrido[2,3-d]pyrimidin-7-one] came in with a melting point of 199 to 200 °C.
